According to patent US5763435A, “Sulfate conjugates of ursodeoxycholic acid, and their beneficial use in inflammatory disorders” (priority 1995, dated 1998):

What was measured:
[1] = Urinary excretion after i.v. infusion; type: in vivo, Sprague-Dawley rats; conditions: rat, urine, iv, read-out: Proportion of administered dose appearing in urine
Description: Adult male Sprague-Dawley rats (body weight 200-230 g) were anesthetized by an intraperitoneal injection of pentobarbital (Nembutal, 7.5 mg/100 g body weight), and maintained under sedation by additional doses. The right jugular vein and the common bile duct were cannulated using PE-50 polyethylene tubing (Clay-Adams, Parsippany, N.J.). Body temperature was maintained throughout the experiment at 37° C. using a rectal probe and a thermostatically controlled heating pad (Harvard Apparatus Co., Inc., Millis, Mass.). Saline was infused at a rate of 1.0 ml/h using a Harvard pump (Harvard Apparatus Co., Inc.) into the jugular vein for a control period of 2h. After collecting two 10 minute bile samples for base-line analysis, the bile acids were individually infused intravenously (i.v.) for 30 minutes in stepwise increasing doses (0.5, 1.0, and 2.0 μmol/min/100 g body weight). Bile acid solutions were prepared in 3% human albumin in 0.45% saline. Six animals were used for each experiment and bile was collected every 10 minutes into preweighed tubes. At the end of the experiment, blood was obtained by cardiac puncture, and urine was obtained by aspiration of the bladder. All biological specimens were stored at -20° C. This animal study protocol (#1 B 10044) was approved by the Bioethics committee of the Children's Hospital Medical Center (Cincinnati, Ohio).
Negative ion fast atom bombardment-mass spectrometry (FAB-MS) spectra of bile samples, urine and synthetic compounds were obtained after placing the equivalent of approximately 1 μl of the original bile extract, 10 μl-50 μl of the urine extract and jig quantities of synthetic bile acids dissolved in methanol onto a small drop of a glycerol matrix spotted on a copper target of the FAB probe. This probe was introduced directly into the ion source of the mass spectrometer and a beam of fast atoms of either xenon generated with a saddle field atom gun (ion Tech, Teddington, Middlesex, UK) operated at 8 kV and 20 μA, or cesium generated from cesium iodine (35 kV), was fired at the target containing the sample. Negative ion spectra were obtained over the mass range of 50-1000 Da/e.
Urine collections from the six animals were pooled and the bile acids were extracted by liquid-solid extraction using a Bond Elut-C18 cartridge and bile acids were analyzed by GC-MS after solvolysis, hydrolysis and derivatization.

[2] = tested on: Principal Bile Acids in Colon; test: Bile acid composition of colon after oral administration (GC-MS); type: in vivo, Sprague-Dawley rats; conditions: for Chenodeoxycholic acid mass in colon / Cholic acid mass in colon / Cholic acid percent of colonic bile acids / Deoxycholic acid mass in colon / Deoxycholic acid percent of colonic bile acids / Lithocholic acid mass in colon / Lithocholic acid percent of colonic bile acids / Total bile acid mass in colon / UDCA mass in colon / UDCA percent of colonic bile acids / Δ^22-UDCA mass in colon / Δ^22-UDCA percent of colonic bile acids / Δ^22-ω-Muricholic acid mass in colon / α-Muricholic acid mass in colon / β-Muricholic acid mass in colon / ω-Muricholic acid mass in colon / Δ^22-β-Muricholic acid mass in colon: oral gavage 250 mg/day, 4 days, mean ± SEM; for Change in colonic deoxycholic / lithocholic acid (in words): oral, vs control
Description: Male Sprague-Dawley rats (Harlan Sprague-Dawley, Inc., Indianapolis, Ind.), weighing 210-290 g, were maintained on a 12-hour light-dark cycle and fed standard laboratory chow ad libitum for 3 days. The animals were then transferred to metabolic cages in which they were housed individually and fed the same diet. UDCA, UDCA 3-sulfate, UDCA 7-sulfate, and UDCA 3,7-disulfate were administered by gavage at a dose of 250 mg/day for 4 consecutive days. Each group comprised 3-6 rats. Body weights of the animals were measured each day. On day 5, the animals were killed by exsanguination under ether anesthesia. Plasma was collected and frozen at -20° C. The liver was removed, rinsed in normal saline, and flash-frozen in liquid nitrogen. Urine and feces were collected every 24 hours and frozen at -20° C. All animals received humane care in compliance with the "Guide for the Care and Use of Laboratory Animals" prepared by the National Academy of Sciences (National Institutes of Health publication no. 86-23, revised in 1985).
Intestinal contents were weighed and dissected into small pieces. In each group, feces (100 mg) from all animals were pooled on day 4 of the study and then ground into a fine paste. All samples were sonicated and sequentially refluxed in 80% methanol for 2 hours and chloroform/methanol (1:1) for 1 hour. Samples were taken to dryness, and the dried extracts were resuspended in 80% methanol (20 mL). Fractions of the methanolic extract (1/40 of intestinal contents and 1/20 of feces samples) were removed and the internal standard nordeoxycholic acid (10 μg) was added. This extract was diluted with 0.01 mol/L acetic acid (20 mL) and passed first through a column of Lipidex 1000 (bed size, 4×1 cm; Packard Instrument Co., Groningen, The Netherlands) and then through a Bond-Elut C18, cartridge (Analytichem, Harbor City, Calif.). Bile acids were recovered by elution of the Lipidex 1000 column and the Bond-Elut cartridge with methanol (20 mL and 5 mL, respectively), and the combined extracts were taken to dryness. Unconjugated bile acids were isolated and separated from neutral sterol and conjugated bile acids by lipophilic anion exchange chromatography on diethylaminohydroxypropyl Sephadex LH-20 (Lipidex-DEAP; Package Instrument Co.). Recovery of unconjugated bile acids was achieved by elution with 0.1 mol/L acetic acid in 72% ethanol (7 mL) followed by evaporation of the solvents. Total conjugated bile acids were recovered with 9 mL of 0.3 mol/L acetic acid in 72% ethanol, pH 9.6. Salts were removed by passage through a Bond-Elut C18 cartridge after addition of nordeoxycholic acid (10 μg), and conjugated bile acids were recovered by elution with 5 mL of methanol. Solvolysis was performed in a mixture of methanol (1 mL), distilled tetrahydrofuran (9 mL), and 1 mol/L trifluoracetic acid in dioxane (0.1 mL) and heated to 45° C for 2 hours. After solvolysis, unconjugated bile acids were isolated by chromatography on Lipidex-DEAP. Methyl ester derivatives were prepared by dissolving the sample in methanol (0.3 mL) and reacting with 2.7 mL of freshly distilled ethereal diazomethane. After evaporation of the reagents, the methyl ester derivatives were converted to trimethylsilyl ethers by the addition of […] of Tri-Sil reagent (Pierce Chemicals, Rockford, Ill.). A column of Lipidex 5000 (Packard Instrument Co.) was used to remove derivatizing reagents and to purify the sample.
GC-MS analysis was performed using a Finnigan 4635 mass spectrometer (Finnigan Inc., San Jose, Calif.) that housed an identical gas chromatography column operated under the same conditions. Electron ionization (70 eV) mass spectra were recorded over the mass range of 50-800 daltons by repetitive scanning of the eluting components. […]

C[C@H](CCC(=O)O)[C@H]1CC[C@H]2[C@@H]3[C@@H](O)C[C@@H]4C[C@H](O)CC[C@]4(C)[C@H]3CC[C@]12C [UDCA, 3 alpha, 7 beta-dihydroxy-5 beta-cholan-24oic acid, reference compound]
dose excreted [1]: 0.01%
Chenodeoxycholic acid mass in colon [2]: 0.05 mg
Cholic acid mass in colon [2]: 0.24 mg
Cholic acid percent of colonic bile acids [2]: 8.9%
Deoxycholic acid mass in colon [2]: 0.31 mg
Deoxycholic acid percent of colonic bile acids [2]: 10.4%
Lithocholic acid mass in colon [2]: 0.97 mg
Lithocholic acid percent of colonic bile acids [2]: 32.0%
Total bile acid mass in colon [2]: 3.04 mg
UDCA mass in colon [2]: 0.31 mg
UDCA percent of colonic bile acids [2]: 8.3%
Δ^22-UDCA mass in colon [2]: 0.02 mg
Δ^22-UDCA percent of colonic bile acids [2]: 0.4%
Δ^22-ω-Muricholic acid mass in colon [2]: 0.19 mg
α-Muricholic acid mass in colon [2]: 0.01 mg
β-Muricholic acid mass in colon [2]: 0.13 mg
ω-Muricholic acid mass in colon [2]: 0.83 mg
Change in colonic deoxycholic / lithocholic acid (in words) [2]: decrease (P=0.003) in the proportion of deoxycholic acid

C[C@H](CCC(=O)O)[C@H]1CC[C@H]2[C@@H]3[C@@H](O)C[C@@H]4C[C@H](OS(=O)(=O)O)CC[C@]4(C)[C@H]3CC[C@]12C [UDCA-3S, ursodeoxycholic acid 3-sulfate]
dose excreted [1]: 2.8%
Chenodeoxycholic acid mass in colon [2]: 0.06 mg
Cholic acid mass in colon [2]: 0.44 mg
Cholic acid percent of colonic bile acids [2]: 13.8%
Deoxycholic acid mass in colon [2]: .58 mg
Deoxycholic acid percent of colonic bile acids [2]: 17.4%
Lithocholic acid mass in colon [2]: 0.61 mg
Lithocholic acid percent of colonic bile acids [2]: 18.4%
Total bile acid mass in colon [2]: 4.07 mg
UDCA mass in colon [2]: 0.05 mg
UDCA percent of colonic bile acids [2]: 1.5 ± 0.2%
Δ^22-UDCA mass in colon [2]: 0.01 mg
Δ^22-UDCA percent of colonic bile acids [2]: 0.2 ± 0.1%
Δ^22-β-Muricholic acid mass in colon [2]: 0.01 mg
Δ^22-ω-Muricholic acid mass in colon [2]: 0.44 mg
α-Muricholic acid mass in colon [2]: 0.02 mg
β-Muricholic acid mass in colon [2]: 0.20 mg
ω-Muricholic acid mass in colon [2]: 1.67 mg

C[C@H](CCC(=O)O)[C@H]1CC[C@H]2[C@@H]3[C@@H](OS(=O)(=O)O)C[C@@H]4C[C@H](O)CC[C@]4(C)[C@H]3CC[C@]12C [UDCA-7S, ursodeoxycholic acid 7-sulfate]
dose excreted [1]: 0.9%
Chenodeoxycholic acid mass in colon [2]: 0.06 mg
Cholic acid mass in colon [2]: 0.09 mg
Cholic acid percent of colonic bile acids [2]: 2.5%
Deoxycholic acid mass in colon [2]: 0.36 mg
Deoxycholic acid percent of colonic bile acids [2]: 11.4%
Lithocholic acid mass in colon [2]: 0.04 mg
Lithocholic acid percent of colonic bile acids [2]: 1.3%
Total bile acid mass in colon [2]: 2.98 mg
UDCA mass in colon [2]: 1.28 mg
UDCA percent of colonic bile acids [2]: 44.0%
Δ^22-UDCA percent of colonic bile acids [2]: 0%
Δ^22-β-Muricholic acid mass in colon [2]: 0.03 mg
Δ^22-ω-Muricholic acid mass in colon [2]: 0.15 mg
α-Muricholic acid mass in colon [2]: 0.03 mg
β-Muricholic acid mass in colon [2]: 0.06 mg
ω-Muricholic acid mass in colon [2]: 0.88 mg
Change in colonic deoxycholic / lithocholic acid (in words) [2]: substantial reductions in the mass and proportion of both deoxycholic acid and lithocholic acid

C[C@H](CCC(=O)O)[C@H]1CC[C@H]2[C@@H]3[C@@H](OS(=O)(=O)O)C[C@@H]4C[C@H](OS(=O)(=O)O)CC[C@]4(C)[C@H]3CC[C@]12C [UDCA-DS, ursodeoxycholic acid 3,7-disulfate]
dose excreted [1]: 2.2%
Chenodeoxycholic acid mass in colon [2]: 0.07 mg
Cholic acid mass in colon [2]: 0.23 mg
Cholic acid percent of colonic bile acids [2]: 26.3%
Deoxycholic acid mass in colon [2]: 0.31 mg
Deoxycholic acid percent of colonic bile acids [2]: 27.2%
Lithocholic acid mass in colon [2]: 0.02 mg
Lithocholic acid percent of colonic bile acids [2]: 1.8%
Total bile acid mass in colon [2]: 1.22 mg
UDCA mass in colon [2]: 0.20 mg
UDCA percent of colonic bile acids [2]: 14.7%
Δ^22-UDCA percent of colonic bile acids [2]: 0%
Δ^22-β-Muricholic acid mass in colon [2]: 0.01 mg
Δ^22-ω-Muricholic acid mass in colon [2]: 0.06 mg
α-Muricholic acid mass in colon [2]: 0.03 mg
β-Muricholic acid mass in colon [2]: 0.06 mg
ω-Muricholic acid mass in colon [2]: 0.24 mg
Change in colonic deoxycholic / lithocholic acid (in words) [2]: substantial reductions in the mass and proportion of both deoxycholic acid and lithocholic acid
